In ChEMBL document CHEMBL1127071, “Structure-activity relationships of C-terminal endothelin hexapeptide antagonists” (J Med Chem, 1993):
Several values for one entry are separate records, joined by “and”; a condition that tells them apart may be missing. Equal entries are not always repeated. Where a SMILES comes first, the peptide text is derived from it. [ ]: non-standard residue; d: D form. d2Nal = N[C@H](Cc1ccc2ccccc2c1)C(=O)O; Orn = NCCC[C@H](N)C(=O)O

Tests used:
[1] = molecular target: T1, Endothelin receptor type B (Rattus norvegicus, UniProt P21451); assay: Effective concentration against Endothelin B receptor from rat cerebellum; assay type: tissue-based
T1 sequence (P21451 whole entry): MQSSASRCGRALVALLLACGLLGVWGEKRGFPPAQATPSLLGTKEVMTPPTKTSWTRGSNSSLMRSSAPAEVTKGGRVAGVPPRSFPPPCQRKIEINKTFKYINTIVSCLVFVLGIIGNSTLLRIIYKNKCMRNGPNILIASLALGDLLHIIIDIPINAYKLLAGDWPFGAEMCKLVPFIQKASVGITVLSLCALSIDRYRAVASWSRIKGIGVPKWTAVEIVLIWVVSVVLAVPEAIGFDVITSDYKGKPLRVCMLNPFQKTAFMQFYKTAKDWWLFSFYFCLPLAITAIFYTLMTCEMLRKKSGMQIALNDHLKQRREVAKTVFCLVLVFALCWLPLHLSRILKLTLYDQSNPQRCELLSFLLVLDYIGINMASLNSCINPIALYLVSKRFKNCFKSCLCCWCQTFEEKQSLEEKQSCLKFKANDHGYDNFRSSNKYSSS

Endothelin receptor = molecular target: T2, Endothelin receptor (Rattus norvegicus, UniProt P26684+P21451); assay: Binding affinity against Endothelin receptor from rat heart ventricle; assay type: protein assay
T2 sequence (P26684 whole entry): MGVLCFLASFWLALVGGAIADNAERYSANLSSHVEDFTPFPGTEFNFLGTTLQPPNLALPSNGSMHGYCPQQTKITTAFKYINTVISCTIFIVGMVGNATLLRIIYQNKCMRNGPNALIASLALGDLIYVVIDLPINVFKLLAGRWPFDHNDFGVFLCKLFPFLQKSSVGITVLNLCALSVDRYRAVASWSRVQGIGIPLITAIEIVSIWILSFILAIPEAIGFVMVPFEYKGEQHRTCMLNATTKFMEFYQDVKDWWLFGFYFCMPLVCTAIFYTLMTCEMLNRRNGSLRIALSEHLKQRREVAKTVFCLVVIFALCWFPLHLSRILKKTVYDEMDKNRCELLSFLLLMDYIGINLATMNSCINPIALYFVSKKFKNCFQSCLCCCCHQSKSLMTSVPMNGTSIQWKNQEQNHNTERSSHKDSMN
T2 sequence (P21451 whole entry): T1 sequence (P21451 whole entry)

Oryctolagus cuniculus = species on record: Oryctolagus cuniculus; assay: Inhibition of ET-1 stimulated arachidonic acid release in rabbit renal artery vascular smooth muscle cells; assay type: functional

| Compound | IC50 [1] [nM] | IC50 (Endothelin receptor) | IC50 (Oryctolagus cuniculus) [nM] |
| --- | --- | --- | --- |
| CC[C@H](C)[C@H](NC(=O)[C@H](CC(=O)O)NC(=O)[C@@H](Cc1ccccc1)NC(C)=O)C(=O)N[C@H](C(=O)N[C@@H](Cc1c[nH]c2ccccc12)C(=O)O)[C@@H](C)CC (Ac-[dF]DIIW-OH) |  | 2.15 µM |  |
| CC[C@@H](C)[C@@H](NC(=O)[C@H](CC(=O)O)NC(=O)[C@H](CC(C)C)NC(=O)[C@H](Cc1c[nH]cn1)NC(C)=O)C(=O)N[C@H](C(=O)N[C@@H](Cc1c[nH]c2ccccc12)C(=O)O)[C@@H](C)CC |  | 169 µM |  |
| CC[C@H](C)[C@H](NC(=O)[C@H](CC(=O)O)NC(=O)[C@H](CC(C)C)NC(=O)[C@@H](Cc1ccccc1)NC(C)=O)C(=O)N[C@@H](CCCCN)C(=O)N[C@@H](Cc1c[nH]c2ccccc12)C(=O)O |  | > 50 µM |  |
| CC[C@H](C)[C@H](NC(=O)[C@@H](Cc1ccccc1)NC(C)=O)C(=O)N[C@@H](Cc1c[nH]c2ccccc12)C(=O)O (Ac-[dF]-Ile-Trp-OH) | > 10000 |  |  |
| CC[C@H](C)[C@H](NC(=O)[C@H](CC(=O)O)NC(=O)[C@H](CC(C)C)NC(=O)[C@H](Cc1c[nH]cn1)NC(C)=O)C(=O)N[C@H](C(=O)N[C@H](Cc1c[nH]c2ccccc12)C(=O)O)[C@@H](C)CC |  | > 50 µM |  |
| CC[C@H](C)[C@H](NC(=O)[C@H](CCCCN)NC(=O)[C@H](CC(=O)O)NC(=O)[C@H](CC(C)C)NC(=O)[C@@H](Cc1ccccc1)NC(C)=O)C(=O)N[C@@H](Cc1c[nH]c2ccccc12)C(=O)O | > 10000 | > 50 µM |  |
| CC[C@H](C)[C@H](NC(=O)[C@H](CC(=O)O)NC(=O)[C@H](CC(C)C)NC(=O)[C@@H](Cc1ccccc1)NC(C)=O)C(=O)N[C@@H](CCC(=O)O)C(=O)N[C@@H](Cc1c[nH]c2ccccc12)C(=O)O |  | 5.2 µM |  |
| CC[C@H](C)[C@H](NC(=O)[C@H](CC(=O)O)NC(=O)[C@H](CC(C)C)NC(=O)[C@@H](Cc1ccc2ccccc2c1)NC(C)=O)C(=O)N[C@H](C(=O)N[C@@H](Cc1c[nH]c2ccccc12)C(=O)O)[C@@H](C)CC (Ac-[d2Nal]LDIIW-OH) |  |  | 1900 |
| CC[C@H](C)[C@H](NC(=O)[C@H](Cc1ccc(O)cc1)NC(=O)[C@@H](Cc1ccccc1)NC(C)=O)C(=O)N[C@H](C(=O)N[C@@H](Cc1c[nH]c2ccccc12)C(=O)O)[C@@H](C)CC | > 10000 |  |  |
| CC[C@H](C)[C@H](NC(=O)[C@H](CC(=O)O)NC(=O)[C@H](CC(C)C)NC(=O)[C@@H](Cc1ccccc1)NC(C)=O)C(=O)N[C@@H](Cc1c[nH]c2ccccc12)C(=O)O (Ac-[dF]LDIW-OH) | > 10000 | 24.5 µM |  |
| CC[C@H](C)[C@H](NC(=O)[C@H](CCCCN)NC(=O)[C@H](CC(C)C)NC(=O)[C@@H](Cc1ccccc1)NC(C)=O)C(=O)N[C@H](C(=O)N[C@@H](Cc1c[nH]c2ccccc12)C(=O)O)[C@@H](C)CC | > 10000 | 12 µM |  |
| CC[C@H](C)[C@H](NC(=O)[C@H](CC(=O)O)NC(=O)[C@@H](CC(C)C)NC(=O)[C@H](Cc1c[nH]cn1)NC(C)=O)C(=O)N[C@H](C(=O)N[C@@H](Cc1c[nH]c2ccccc12)C(=O)O)[C@@H](C)CC |  | 39 µM |  |
| CC[C@H](C)[C@H](NC(=O)[C@H](CC(=O)O)NC(=O)[C@H](CC(C)C)NC(=O)[C@@H](Cc1c[nH]cn1)NC(C)=O)C(=O)N[C@H](C(=O)N[C@@H](Cc1c[nH]c2ccccc12)C(=O)O)[C@@H](C)CC | 9100 | 4.1 µM and 4.5 µM |  |

The next lines start with the values.

| IC50 [1] [nM] | IC50 (Endothelin receptor) | IC50 (Oryctolagus cuniculus) [nM] | Compound |
| --- | --- | --- | --- |
| > 10000 |  |  | CC[C@H](C)[C@H](NC(=O)[C@H](CC(=O)O)NC(=O)[C@H](CC(C)C)NC(=O)[C@@H](Cc1ccccc1)NC(C)=O)C(=O)N[C@H](C(=O)NC(Cc1cnc[nH]1)C(=O)O)[C@@H](C)CC (mixture of isomers) |
| 2600 |  |  | CC[C@H](C)[C@H](NC(=O)[C@H](CC(=O)O)NC(=O)[C@H](CC(C)C)NC(=O)[C@@H](N)Cc1ccccc1)C(=O)N[C@H](C(=O)N[C@@H](Cc1c[nH]c2ccccc12)C(=O)O)[C@@H](C)CC |
| 150 |  |  | CC[C@H](C)[C@H](NC(=O)[C@H](CC(=O)O)NC(=O)[C@H](CC(C)C)NC(=O)[C@@H](Cc1ccccc1)NC(C)=O)C(=O)N[C@H](C(=O)N[C@@H](Cc1ccc(O)cc1)C(=O)O)[C@@H](C)CC (Ac-[dF]LDIIY-OH) |
| 2000 | 0.74 µM |  | CC[C@H](C)[C@H](NC(=O)[C@H](CC(=O)O)NC(=O)[C@H](CC(C)C)NC(=O)[C@@H](Cc1ccccc1)NC(C)=O)C(=O)N[C@H](C(=O)N[C@@H](Cc1c[nH]c2ccccc12)C(=O)O)[C@@H](C)CC (Ac-[dF]LDIIW-OH) |
| > 10000 | 9 µM | > 10000 | CC[C@H](C)[C@H](NC(=O)[C@H](CCC(=O)O)NC(=O)[C@H](CC(=O)O)NC(=O)[C@H](CC(C)C)NC(=O)[C@@H](Cc1ccccc1)NC(C)=O)C(=O)N[C@@H](Cc1c[nH]c2ccccc12)C(=O)O |
| 18500 |  |  | Ac-FLDIIW-OH |
| 20 |  | 2200 | CC[C@H](C)[C@H](NC(=O)[C@H](CC(=O)O)NC(=O)[C@H](Cc1ccccc1)NC(=O)[C@@H](Cc1ccccc1)NC(C)=O)C(=O)N[C@H](C(=O)N[C@@H](Cc1c[nH]c2ccccc12)C(=O)O)[C@@H](C)CC (stereo in doubt; 21) |
| 2600 | 12.4 µM |  | CC[C@H](C)[C@H](NC(=O)[C@H](CC(=O)O)NC(=O)[C@H](CC(C)C)NC(=O)[C@H](N)Cc1ccccc1)C(=O)N[C@H](C(=O)N[C@@H](Cc1c[nH]c2ccccc12)C(=O)O)[C@@H](C)CC |
| 36 | 0.38 µM |  | CC[C@H](C)[C@H](NC(=O)[C@H](Cc1ccccc1)NC(=O)[C@H](CC(C)C)NC(=O)[C@@H](Cc1ccccc1)NC(C)=O)C(=O)N[C@H](C(=O)N[C@@H](Cc1c[nH]c2ccccc12)C(=O)O)[C@@H](C)CC (Ac-[dF]LFIIW-OH) |
| 7000 |  | 250 | CC[C@H](C)[C@H](NC(=O)[C@H](CC(=O)O)NC(=O)[C@H](CC(C)C)NC(=O)[C@@H](Cc1ccc(O)cc1)NC(C)=O)C(=O)N[C@H](C(=O)N[C@@H](Cc1c[nH]c2ccccc12)C(=O)O)[C@@H](C)CC (Ac-[dY]LDIIW-OH) |
| > 10000 |  |  | CC[C@H](C)[C@H](NC(=O)[C@@H](NC(=O)[C@@H](Cc1ccccc1)NC(C)=O)[C@@H](C)CC)C(=O)N[C@@H](Cc1c[nH]c2ccccc12)C(=O)O (Ac-[dF]IIW-OH) |
| 450 | 1.61 µM | 1500 | CC[C@H](C)[C@H](NC(=O)[C@H](C)NC(=O)[C@H](CC(=O)O)NC(=O)[C@H](CC(C)C)NC(=O)[C@@H](Cc1ccccc1)NC(C)=O)C(=O)N[C@@H](Cc1c[nH]c2ccccc12)C(=O)O (Ac-[dF]LDAIW-OH) |
| 2450 | 0.68 µM |  | CC[C@H](C)[C@H](NC(=O)[C@H](CC(=O)O)NC(=O)[C@H](CCCN)NC(=O)[C@@H](Cc1ccccc1)NC(C)=O)C(=O)N[C@H](C(=O)N[C@@H](Cc1c[nH]c2ccccc12)C(=O)O)[C@@H](C)CC (Ac-[dF][Orn]DIIW-OH) |
| 60 | 0.33 µM |  | CC[C@H](C)[C@H](NC(=O)[C@H](CC(=O)O)NC(=O)[C@H](Cc1ccccc1)NC(=O)[C@@H](Cc1ccccc1)NC(C)=O)C(=O)N[C@H](C(=O)N[C@@H](Cc1c[nH]c2ccccc12)C(=O)O)[C@@H](C)CC (stereo in doubt; 20) |
| 4600 |  |  | CC[C@H](C)[C@H](NC(=O)[C@H](Cc1ccccc1)NC(=O)[C@H](CC(=O)O)NC(=O)[C@@H](Cc1ccccc1)NC(C)=O)C(=O)N[C@@H](Cc1c[nH]c2ccccc12)C(=O)O (Ac-[dF]DFIW-OH) |
